Test results published in patent US20250296971A1, “GASTRIC INHIBITORY PEPTIDE RECEPTOR LIGANDS” (priority 2021, published 2025).
Read-outs that look alike come from different tables or passages of the source. *1 amine or outer side, *2 acyl side, *3 side chain or, on linkers, in order; H or OH if unused. Where a SMILES comes first, the peptide text is derived from it. Bridges are numbered along the chain shown (N, C = ends). [ ]: non-standard residue; d: D form. The star is where a group is joined. X16 = NC(=O)[C@H](CCCCNC(=O)CN1CCN2CCN3CCN(CC1)CC(=O)[O][Lu]([O]C(=O)C2)[O]C(=O)C3)NC(=O)CCC(=O)NCCCOCCOCCOCCCN*; X11 = O=C(CN1CCN2CCN3CCN(CC1)CC(=O)[O][In]([O]C(=O)C2)[O]C(=O)C3)NCCCOCCOCCOCCCN*; Trp(5-Cl) = N[C@@H](Cc1c[nH]c2ccc(Cl)cc12)C(=O)O; mXylylene = c1cc(C[*:1])cc(C[*:2])c1; X6 = c1cc(CSCCN[*:2])nc(C[*:1])c1; X7 = c1cc(CSCCN[*:2])cc(C[*:1])c1; Suc = O=C(CCC(=O)[*:2])[*:1]; αMeS = C[C@](N)(CO)C(=O)O; Thp = NC1(C(=O)O)CCOCC1; Aib = CC(C)(N)C(=O)O; Sar = CNCC(=O)O

Molecular target: T1, GIPR (CHO-K1-hGIPR cells) (Homo sapiens, UniProt P48546)
T1 construct: host or cells: CHO-K1
T1 sequence (P48546 22-466): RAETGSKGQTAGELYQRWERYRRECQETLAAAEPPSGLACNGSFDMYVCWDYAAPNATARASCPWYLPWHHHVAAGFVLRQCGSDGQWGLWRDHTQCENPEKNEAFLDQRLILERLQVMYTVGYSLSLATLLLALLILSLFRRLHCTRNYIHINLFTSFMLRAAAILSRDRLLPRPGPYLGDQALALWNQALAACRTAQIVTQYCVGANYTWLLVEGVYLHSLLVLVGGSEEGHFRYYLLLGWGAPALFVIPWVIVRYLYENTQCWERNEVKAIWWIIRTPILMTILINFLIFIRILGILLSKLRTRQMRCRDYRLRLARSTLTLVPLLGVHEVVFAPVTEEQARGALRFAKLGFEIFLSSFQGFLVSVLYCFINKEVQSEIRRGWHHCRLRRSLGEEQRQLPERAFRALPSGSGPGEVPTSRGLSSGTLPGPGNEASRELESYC
Assay: FACS binding assay
Conditions: competition with 20 nM GIP-057, 4° C., 1 hour
In short: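 Peptide binding read by flow cytometry as APC-channel median fluorescence, fitted with a four-parameter logistic to yield EC50 or IC50. Cells were hGIPR-transfected CHO-K1 in PBS with 1% FCS, detected with 1 μg/mL APC-streptavidin, 30 min on ice.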

[1] = read-out: pIC50 Category (converted)

| Structure (SMILES) | IC50 [1] [nM] | IC50 (pIC50 Category) [nM] |
| --- | --- | --- |
| CC[C@H](C)[C@@H]1NC(=O)[C@H](CC(C)C)NC(=O)C(C)(C)NC(=O)[C@@H](NC(=O)[C@@H](CC(C)C)NC(=O)[C@H](CCC(=O)O)NC(=O)[C@@H]2CCCN2C(=O)[C@H](Cc2c[nH]c3ccc(Cl)cc23)NC(=O)[C@H](Cc2c[nH]c3ccccc23)NC(=O)[C@H](CC(=O)O)NC(=O)CCC(=O)NCCCOCCOCCOCCCNC(=O)CN2CCN3CCN4CCN(CC2)CC(=O)[O][In]([O]C(=O)C3)[O]C(=O)C4)CSCc2cccc(c2)CSCCNC1=O [GIP-148, InDOTA-Ttds-Asp-Trp-5Clw-Pro-Glu-leu-[Cys(3MeBn)-Aib-Leu-Ile-AET]] ({X11-Suc}-DW[Trp(5-Cl)]PE[dL]C[Aib]LI; linker 7-C via X7) | < 10 |  |
| CC[C@H](C)[C@@H]1NC(=O)[C@H](CC(C)C)NC(=O)[C@](C)(CO)NC(=O)[C@@H](NC(=O)[C@@H](CC(C)C)NC(=O)[C@H](CCC(=O)O)NC(=O)[C@@H]2CCCN2C(=O)[C@H](Cc2c[nH]c3ccc(Cl)cc23)NC(=O)[C@H](Cc2c[nH]c3ccccc23)NC(=O)[C@H](CC(=O)O)NC(=O)CCC(=O)NCCCOCCOCCOCCCNC(=O)CN2CCN3CCN4CCN(CC2)CC(=O)[O][In]([O]C(=O)C3)[O]C(=O)C4)CSCc2cccc(c2)CSCCNC1=O [GIP-149, InDOTA-Ttds-Asp-Trp-5Clw-Pro-Glu-leu-[Cys(3MeBn)-Ams-Leu-Ile-AET]] ({X11-Suc}-DW[Trp(5-Cl)]PE[dL]C[αMeS]LI; linker 7-C via X7) | < 10 |  |
| CC[C@H](C)[C@@H]1NC(=O)[C@H](CC(C)C)NC(=O)C2(CCOCC2)NC(=O)[C@@H](NC(=O)[C@@H](CC(C)C)NC(=O)[C@H](CCC(=O)O)NC(=O)[C@@H]2CCCN2C(=O)[C@H](Cc2c[nH]c3ccc(Cl)cc23)NC(=O)[C@H](Cc2c[nH]c3ccccc23)NC(=O)[C@H](CC(=O)O)NC(=O)CCC(=O)NCCCOCCOCCOCCCNC(=O)CN2CCN3CCN4CCN(CC2)CC(=O)[O][In]([O]C(=O)C3)[O]C(=O)C4)CSCc2cccc(c2)CSCCNC1=O [GIP-150, InDOTA-Ttds-Asp-Trp-5Clw-Pro-Glu-leu-[Cys(3MeBn)-Thp-Leu-Ile-AET]] ({X11-Suc}-DW[Trp(5-Cl)]PE[dL]C[Thp]LI; linker 7-C via X7) | < 10 |  |
| CC[C@H](C)[C@@H]1NC(=O)[C@H](CC(C)C)NC(=O)C(C)(C)NC(=O)[C@@H](NC(=O)[C@@H](CC(C)C)NC(=O)[C@H](CCC(=O)O)NC(=O)CN(C)C(=O)[C@H](Cc2c[nH]c3ccc(Cl)cc23)NC(=O)[C@H](Cc2c[nH]c3ccccc23)NC(=O)[C@H](CC(=O)O)NC(=O)CCC(=O)NCCCOCCOCCOCCCNC(=O)CN2CCN3CCN4CCN(CC2)CC(=O)[O][In]([O]C(=O)C3)[O]C(=O)C4)CSCc2cccc(c2)CSCCNC1=O [GIP-152, InDOTA-Ttds-Asp-Trp-5Clw-Nmg-Glu-leu-[Cys(3MeBn)-Aib-Leu-Ile-AET]] ({X11-Suc}-DW[Trp(5-Cl)][Sar]E[dL]C[Aib]LI; linker 7-C via X7) | < 10 |  |
| CC[C@H](C)[C@@H]1NC(=O)[C@H](CC(C)C)NC(=O)C(C)(C)NC(=O)[C@@H](NC(=O)[C@@H](CC(C)C)NC(=O)[C@H](CCC(=O)O)NC(=O)[C@@H]2CCCN2C(=O)[C@H](Cc2c[nH]c3ccc(Cl)cc23)NC(=O)[C@H](Cc2c[nH]c3ccccc23)NC(=O)[C@H](CC(=O)O)NC(=O)CCC(=O)NCCCOCCOCCOCCCNC(=O)CN2CCN3CCN4CCN(CC2)CC(=O)[O][In]([O]C(=O)C3)[O]C(=O)C4)CSCc2cccc(n2)CSCCNC1=O [GIP-154, InDOTA-Ttds-Asp-Trp-5Clw-Pro-Glu-leu-[Cys(2Lut)-Aib-Leu-Ile-AET]] ({X11-Suc}-DW[Trp(5-Cl)]PE[dL]C[Aib]LI; linker 7-C via X6) | < 10 |  |
| CC[C@H](C)[C@@H]1NC(=O)[C@H](CC(C)C)NC(=O)C(C)(C)NC(=O)[C@@H](NC(=O)[C@@H](CC(C)C)NC(=O)[C@H](CCC(=O)O)NC(=O)[C@@H]2CCCN2C(=O)[C@H](Cc2c[nH]c3ccc(Cl)cc23)NC(=O)[C@H](Cc2c[nH]c3ccccc23)NC(=O)[C@H](CC(=O)O)NC(C)=O)CSCc2cccc(c2)CSC[C@@H](C(=O)NCCCOCCOCCOCCCNC(=O)CCC(=O)N[C@@H](CCCCNC(=O)CN2CCN3CCN4CCN(CC2)CC(=O)[O][Lu]([O]C(=O)C3)[O]C(=O)C4)C(N)=O)NC1=O [GIP-156, Ac-Asp-Trp-5Clw-Pro-Glu-leu-[Cys(3MeBn)-Aib-Leu-Ile-Cys]-Ttds-Lys(LuDOTA)-NH2] (Ac-DW[Trp(5-Cl)]PE[dL]C[Aib]LIC-X16; linker 7-11 via mXylylene) |  | < 10 |
